Experimental data taken from EP4663198A1, “COMPOSITION CONTAINING CYCLIC PEPTIDE COMPOUND AND SURFACTANT” (CHUGAI SEIYAKU KABUSHIKI KAISHA, priority 2023, dated 2024).

Details: Caco-2, pH 6.5
Protocol: Caco-2 cells were cultured on 96-well Transwell for 3 weeks. […] From the permeation amount, the permeability coefficient (Caco-2 Papp (cm/sec)) was calculated.
From the measured permeation amount, the permeability coefficient was calculated.

For `CCO[C@@H]1C[C@H]2C(=O)NC3(CCCC3)C(=O)N[C@@H](C3CCCC3)C(=O)N(C)[C@H](C(=O)N(C)C)CC(=O)N(C)[C@@H](CC(C)C)C(=O)N[C@@H]([C@@H](C)CC)C(=O)N(C)CC(=O)N(C)[C@H]3C/C=C\CCN(C3=O)[C@@H](Cc3ccc(C(F)(F)F)cc3)C(=O)N(C)CC(=O)N[C@@H](CCc3cc(F)c(C(F)(F)F)c(F)c3)C(=O)N2C1` [CP01, (2S,8S,12R,14S,20S,23S,27S,30S,36S,38Z)-20-cyclopentyl-8-[2-[3,5-difluoro-4-(trifluoromethyl)phenyl]ethyl]-12-ethoxy-27-isobutyl-N,N,4,22,26,32,35-heptamethyl-30-[(1S)-1-methylpropyl]-3,6,9,15,18,21,25,28,31,34,42-undecaoxo-2-[(4-(trifluoromethyl)phenyl]methyl]spiro[1,4,7,10,16,19,22,26,29,32,35-undecazatricyclo[34.5.1.0^10,14]dotetraconta-38-en-17,1'-cyclopentane]-23-carboxamide], which Papp A→B is on record?
Its Papp A→B is 0.0525 ×10⁻⁶ cm/s.
